This note sets out measurements from patent US11627753B2, “Solubilized steviol glycoside compositions” (JAMES AND CAROL MAY FAMILY, LLLP, priority 2014, dated 2023).

A short description of the series: Precipitation from aqueous solution in the absence of the emulsifier. The class given is physicochemical. The conditions noted are these: without natural emulsifier. The source says: In accordance with various exemplary embodiments of the present technology, the sweetener composition may comprise a natural emulsifier. The natural emulsifier may function to disperse the stevia glycosides through an aqueous solution such as water. The dissolved concentration of the stevia glycosides in the aqueous solution may be higher in the presence of the natural emulsifier than in the absence of the natural emulsifier. For example, rebaudioside A present in amounts of 11% by weight or greater may precipitate from an aqueous solution. In various embodiments of the present technology, the natural emulsifier may allow rebaudioside A to be present in aqueous solution in amounts of up to about 20% by weight without precipitation. In some embodiments, adding the natural emulsifier to an aqueous (ie., water-based) solution of stevia glycosides may stabilize the solubility of the sweetener composition including reducing or eliminating the precipitation of solids from the solution by binding any of the components to prevent separation of the finished sweetener composition.
In various embodiments, the solubility of the aqueous sweetener composition may remain stable for more than five days at room temperature. In some embodiments, the solubility of the aqueous sweetener composition may remain a stable for at least six months at room temperature. […]

`C=C1C[C@@]23CC[C@H]4[C@@](C)(CCC[C@@]4(C)C(=O)O[C@@H]4O[C@H](CO)[C@@H](O)[C@H](O)[C@H]4O)[C@@H]2CC[C@]1(O[C@@H]1O[C@H](CO)[C@@H](O)[C@H](O[C@@H]2O[C@H](CO)[C@@H](O)[C@H](O)[C@H]2O)[C@H]1O[C@@H]1O[C@H](CO)[C@@H](O)[C@H](O)[C@H]1O)C3` [rebaudioside A]: the “amount at which it may precipitate from an aqueous solution” value is recorded as not below 11 % by weight.
